Assay results from the supplement of paper PMC8967900.

Columns and labels:
Test in all cases: selective drug sensitivity score (sDSS, relative to normal bone marrow) (sDSS (score)); higher = more potent and effective on the cell line relative to normal bone marrow cells
Conditions in all cases: 72 h
COG-LL-394h = tested on: COG-LL-394h
NALM-16 = tested on: NALM-16
SEM cells = tested on: SEM cells
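Note: ALL cell lines in 384-well plates, five doses spanning 10,000-fold, each plate scaled between vehicle and 100 µmol/L benzalkonium chloride controls, sDSS an adapted area-under-curve metric.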

SMILES	selective drug sensitivity score (COG-LL-394h)	selective drug sensitivity score (NALM-16)	selective drug sensitivity score (SEM cells)
O=c1[nH]c(=O)n([C@H]2C[C@H](O)[C@@H](CO)O2)cc1C(F)(F)F [Trifluridine] (top concentration 10000 nM)	2.66	4.06	14.5
CN(Cc1cnc2nc(N)nc(N)c2n1)c1ccc(C(=O)N[C@@H](CCC(=O)O)C(=O)O)cc1 [Methotrexate] (top concentration 5000 nM)	1.68	6.68	-0.42
CN1CCN(C2CCC(n3cc(-c4ccc(Oc5ccccc5)cc4)c4c(N)ncnc43)CC2)CC1 (stereo not given) (top concentration 10000 nM)	4.42	0.72	9.62
CON(C)C(=O)N1N=C(c2cc(F)ccc2F)S[C@@]1(CCCN)c1ccccc1 [Filanesib] (top concentration 1000 nM)	8.7	16.6	20.3
CC[C@H](CC#N)OC(=O)N[C@@H](C)c1cccc(NC(=O)Nc2ccc(-c3cnco3)c(OC)c2)c1 [AVN944] (top concentration 10000 nM)	-2.06	0.24	7.04
COc1cccc2c1C(=O)c1c(O)c3c(c(O)c1C2=O)C[C@@](O)(C(=O)CO)C[C@@H]3O[C@H]1C[C@H](N)[C@@H](O)[C@H](C)O1 [Epirubicin] (top concentration 1000 nM)	6.82	-0.28	3.82
Cc1sc2c(c1C)C(c1ccc(Cl)cc1)=N[C@@H](CC(=O)NCCCCNC(=O)COc1cccc3c1C(=O)N(C1CCC(=O)NC1=O)C3=O)c1nnc(C)n1-2 (stereo not given in full) [dBET1] (top concentration 10000 nM)	-2.78	-4.48	-3.38
CO[C@H]1C[C@@H]2CC[C@@H](C)[C@@](O)(O2)C(=O)C(=O)N2CCCC[C@H]2C(=O)O[C@H]([C@H](C)C[C@@H]2CC[C@@H](OCCO)[C@H](OC)C2)CC(=O)[C@H](C)/C=C(\C)[C@@H](O)[C@@H](OC)C(=O)[C@H](C)C[C@H](C)/C=C/C=C/C=C/1C [Everolimus] (top concentration 100 nM)	-4.9	-2	1.4
CC[C@@]1(O)C(=O)OCc2c1cc1n(c2=O)Cc2cc3c(CN(C)C)c(O)ccc3nc2-1 [Topotecan] (top concentration 10000 nM)	11.4	7.18	20.3
COc1ccc(-c2ccc3c(N4CCOC[C@@H]4C)nc(N4CCOC[C@@H]4C)nc3n2)cc1CO [AZD8055] (top concentration 10000 nM)	-2.42	1.78	6.18
